Molecular target: H^+ /K^+ -ATPase (Homo sapiens, UniProt P20648)
Experiment: Inhibition of H^+ /K^+ -ATPase (comparison experiment / enzyme test)
Assay type: biochemical

H^+ /K^+ -ATPase, sequence (P20648 whole entry): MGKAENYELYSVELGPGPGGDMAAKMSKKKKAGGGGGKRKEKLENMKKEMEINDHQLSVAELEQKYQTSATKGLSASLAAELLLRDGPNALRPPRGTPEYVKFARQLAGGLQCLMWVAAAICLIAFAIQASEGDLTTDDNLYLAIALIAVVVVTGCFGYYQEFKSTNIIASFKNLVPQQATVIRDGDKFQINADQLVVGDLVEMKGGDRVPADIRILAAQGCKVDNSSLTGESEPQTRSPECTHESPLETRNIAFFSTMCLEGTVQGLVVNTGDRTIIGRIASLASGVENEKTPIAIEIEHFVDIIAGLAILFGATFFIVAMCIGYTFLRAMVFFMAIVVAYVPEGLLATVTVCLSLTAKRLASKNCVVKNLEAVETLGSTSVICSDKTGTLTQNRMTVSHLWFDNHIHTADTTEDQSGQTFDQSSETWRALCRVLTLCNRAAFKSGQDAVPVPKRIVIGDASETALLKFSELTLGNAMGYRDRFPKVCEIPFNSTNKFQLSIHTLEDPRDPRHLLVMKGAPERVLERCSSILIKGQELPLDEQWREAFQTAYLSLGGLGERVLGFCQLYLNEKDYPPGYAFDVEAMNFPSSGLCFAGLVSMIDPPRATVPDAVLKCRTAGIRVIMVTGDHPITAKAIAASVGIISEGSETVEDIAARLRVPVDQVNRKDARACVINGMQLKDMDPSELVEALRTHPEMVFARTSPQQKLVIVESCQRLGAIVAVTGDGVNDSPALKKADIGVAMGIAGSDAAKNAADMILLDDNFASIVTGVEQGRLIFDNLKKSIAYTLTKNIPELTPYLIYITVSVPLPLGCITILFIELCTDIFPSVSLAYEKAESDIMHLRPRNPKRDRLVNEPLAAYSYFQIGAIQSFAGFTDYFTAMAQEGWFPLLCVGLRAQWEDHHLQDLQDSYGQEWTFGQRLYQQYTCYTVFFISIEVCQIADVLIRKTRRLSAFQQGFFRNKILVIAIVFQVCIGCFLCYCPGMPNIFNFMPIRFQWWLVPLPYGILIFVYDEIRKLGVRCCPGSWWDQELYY
H^+ /K^+ -ATPase, sequence (P51164 whole entry partner): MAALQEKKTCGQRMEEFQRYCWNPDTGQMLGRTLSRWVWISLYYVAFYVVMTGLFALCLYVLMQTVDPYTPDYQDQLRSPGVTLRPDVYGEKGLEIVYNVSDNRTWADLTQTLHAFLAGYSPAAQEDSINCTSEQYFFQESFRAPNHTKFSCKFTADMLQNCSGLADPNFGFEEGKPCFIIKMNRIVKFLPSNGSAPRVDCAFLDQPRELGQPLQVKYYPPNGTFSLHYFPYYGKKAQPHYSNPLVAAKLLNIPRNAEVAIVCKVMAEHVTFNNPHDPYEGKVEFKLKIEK

IC50: 5.3 µM
Structure (SMILES): COc1c(C)cnc(C[S+]([O-])c2nc3cc(C4=NCCO4)ccc3[nH]2)c1C (centres unmarked) [Substance A, 5-(4,5-dihydro-2-oxazolyl)-2-((3,5-dimethyl-4-methoxy-2-pyridyl)methylsulfinyl)-1H-benzimidazole]
inhibition of H^+ /K^+ -ATPase relative to omeprazole (comparison with omeprazole): approximately five times greater than does omeprazole
